The test system of one data set is SKOV3 cells. In words: Serum starved, EGF stimulated proliferation assay on ovarian carcinoma SKOV3 cells (MTT). Format: cell-based. The following applies: Homo sapiens, SK-OV-3; EGF 100 ng/ml, 72 hours, serum free; pIC50; read-out: SKOV3 cell (C2): IC50 (converted). As for the experimental part: The ovarian carcinoma cell line (SKOV3) was used in an epidermal growth factor stimulated cell proliferation assay, to assess the inhibitory effect of the compounds on EGF in whole cells.
In a first step the SKOV3 cells were incubated for 24 hours in the presence of 10% FCS serum. In the second step the cells were incubated with the compounds to be tested in a serum free condition (37° C. and 5% (v/v) CO2) and subsequently stimulated for 72 hours with EGF at a final concentration of 100 ng/ml. The effect of the compounds on the EGF stimulation was finally assessed in a standard MTT cell viability assay.

For another data set, the target named is T1, EGFR-kinase domain (Homo sapiens, UniProt P00533).
T1 construct: 0.35 μg/well poly(GT)biotin and 0.5 μg EGFR-kinase domain/well
T1 sequence (P00533 712-979 limits assumed): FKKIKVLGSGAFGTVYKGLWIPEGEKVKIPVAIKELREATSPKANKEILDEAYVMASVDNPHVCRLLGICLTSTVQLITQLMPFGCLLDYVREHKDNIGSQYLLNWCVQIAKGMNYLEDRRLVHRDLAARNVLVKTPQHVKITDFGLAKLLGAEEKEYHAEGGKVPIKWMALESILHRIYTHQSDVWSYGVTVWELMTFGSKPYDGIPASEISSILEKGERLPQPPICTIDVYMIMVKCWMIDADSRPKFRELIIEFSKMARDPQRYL
In words: In vitro inhibition of EGFR (Flash Plate or glass-fiber filter kinase assay). The data set is classed as biochemical. As to conditions: pIC50; read-out: In vitro kinase activity assay.(C1): IC50 (converted). As for the experimental part: The in vitro inhibition of EGFR was assessed using either the Flash Plate technology or the glass-fiber filter technology as described by Davies, S. P. et al., Biochem J. (2000), 351; p. 95-105. The Flash Plate technology is generally described by B. A. Brown et al. in High Throughput Screening (1997), p. 317-328. Editor(s): Devlin, John P. Publisher: Dekker, New York, N.Y.
In the Flash Plate EGFR kinase reaction assay, a kinase substrate consisting of biotinylated poly(L-glutamic acid-L-tyrosine) (poly(GT)biotin), is incubated with the aforementioned protein in the presence of (^33P) radiolabeled ATP. (^33P) phosphorylation of the substrate is subsequently measured as light energy emitted using a streptavidin-coated Flash Plate (PerkinElmer Life Sciences) by trapping and quantifying the binding of the biotin tagged and radiolabeled substrate.
The EGFR kinase reaction is performed at 30° C. for 60 minutes in a 96-well microtiter FlashPlate (PerkinElmer Life Sciences). For each of the tested compounds a full dose response 1.10^−6M to 1.10^−10M has been performed. IRESSA® and Tarceva™ (erlotinib) were used as reference compounds. The 100 μl reaction volume contains 54.5 mM TrisHCl pH 8.0, 10 mM MgCl2, 100 μM Na3VO4, 5.0 μM unlabeled ATP, 1 mM DTT, 0.009% BSA, 0.8 μCi AT^33P, 0.35 μg/well poly(GT)biotin and 0.5 μg EGFR-kinase domain/well.
The reaction is stopped by aspirating the reaction mixture and washing the plate 3× with 200 μl wash/stop buffer (PBS+100 mM EDTA). After the final wash step 200 μl of wash/stop buffer was added to each well and the amount of phosphorylated (^33P) Poly(GT)biotin determined by counting (30 sec/well) in a microtiterplate scintillation counter.
In the glass-fiber filter technology EGFR kinase reaction assay, a kinase substrate consisting of poly(L-glutamic acid-L-tyrosine) (poly(GT)), is incubated with the aforementioned protein in the presence of (^33P) radiolabeled ATP. (^33P) Phosporylation of the substrate is subsequently measured as radioactivity bound on a glassfiber-filter.
The EGFR kinase reaction is performed at 25° C. for 10 minutes in a 96-well microtiterplate. For each of the tested compounds a full dose response 1.10^−6M to 1.10^−10M has been performed. IRESSA® and Tarceva™ (erlotinib) were used as reference compounds. The 25 μl reaction volume contains 60 mM TrisHCl pH 7.5, 3 mM MgCl2, 3 mM Mn Cl2, 3 μM Na3VO4, 50 μg/ml PEG20000, 5.0 μM unlabeled ATP, 1 mM DTT, 0.1 μCi AT^33P, 62.5 ng/well poly(GT) and 0.5 μg EGFR-kinase domain/well.
The reaction is stopped by adding 5 μl of a 3% phosphoric acid solution. 10 μl of the reaction mixture is then spotted onto a Filtermat A filter (Wallac) and washed 3 times for 5 min. in 75 mM phosphoric acid and 1 time for 5 min. in methanol prior to drying and quantification on the Typhoon (Amersham) using a LE phosphorage storage screen.

Broadly, the IC50 is the concentration at which inhibition is half-maximal. Take `Clc1ccc2c(c1)Nc1ncnc3ccc(nc13)NCCCCCCO2` [Compound 1, 7H,19H-4,6-ethanediylidenepyrimido[4,5-b][13,1,4,6]benzoxatriazacyclopentadecine, 17-chloro-8,9,10,11,12,13-hexahydro-]: the figures for the IC50 with SKOV3 cells and on EGFR-kinase domain were 589 nM and 5.01 nM, respectively.
By melting point is commonly meant the temperature of the solid-liquid transition. In the case of `Clc1ccc2c(c1)Nc1ncnc3cnc(nc13)NCCCCCCO2` [Compound 2, 6,4-(nitrilometheno)pyrimido[4,5-b][13,1,4,6]benzoxatriazacyclopentadecine, 17-chloro-7,8,9,10,11,12,13,19-octahydro-], the melting point is > 260 °C. For the same compound, the IC50 in the data set on SKOV3 cells was > 10000 nM. Further, on EGFR-kinase domain, the IC50 was 3.16 nM.
For `OCCCCCCNc1ccc2ncnc(Nc3cc(Cl)ccc3O)c2n1` [Intermediate 2, phenol, 4-chloro-2-[[6-[(6-hydroxyhexyl)amino]pyrido[3,2-d]pyrimidin-4-yl]amino]-], the IC50 was 3160 nM in the data set with SKOV3 cells and 6.31 nM on EGFR-kinase domain.
Take `OCCCCNc1ccc2ncnc(Nc3cc(Cl)ccc3O)c2n1` [Intermediate 3, phenol, 4-chloro-2-[[6-[(4-hydroxybutyl)amino]pyrido[3,2-d]pyrimidin-4-yl]amino]-]: the IC50 is 794 nM in the data set on SKOV3 cells and 3.98 nM on EGFR-kinase domain.
The corresponding values for `OCCCCCNc1ccc2ncnc(Nc3cc(Cl)ccc3O)c2n1` [Intermediate 4, phenol, 4-chloro-2-[[6-[(5-hydroxypentyl)amino]pyrido[3,2-d]pyrimidin-4-yl]amino]-] are 1580 nM and 5.01 nM.
The corresponding values for `OCCCCCCNc1ncc2ncnc(Nc3cc(Cl)ccc3O)c2n1` [Intermediate 6, phenol, 4-chloro-2-[[6-[(6-hydroxyhexyl)amino]pyrimido[5,4-d]pyrimidin-4-yl]amino]-] are 1000 nM and 3.98 nM.

The values are drawn from US8933067B2, “Pyrido and pyrimidopyrimidine derivatives as anti-profilerative agents” (Janssen Pharmaceutica N.V., priority 2003, dated 2015).
